Data on one molecule can be found in PMC5218480 (PLoS ONE, 2017).

Molecules are shown by their SMILES.

The test system of this assay is MV-4-11 cells. Nature of the assay: Gene expression microarray analysis (Affymetrix PrimeView) and GSEA. In kind it is cell-based, human. The arrangement: RFU PODN (11730768_x_at) / Fold change /veh PODN (11730768_x_at) / RFU LINC00158 (11744669_a_at) / Fold change /veh LINC00158 (11744669_a_at) / RFU DUSP10 (11751237_a_at) / Fold change /veh DUSP10 (11751237_a_at) / RFU ID3 (11757404_x_at) / Fold change /veh ID3 (11757404_x_at) / RFU PLEKHG5 (11737974_s_at) / Fold change /veh PLEKHG5 (11737974_s_at) / RFU LRRC4B (11730491_at) / Fold change /veh LRRC4B (11730491_at) / RFU GIMAP4 (11747438_a_at) / Fold change /veh GIMAP4 (11747438_a_at) / RFU KRT8 (11758183_x_at) / Fold change /veh KRT8 (11758183_x_at) / RFU CNN1 (11734310_a_at) / Fold change /veh CNN1 (11734310_a_at) / RFU VPS37D (11726825_at) / Fold change /veh VPS37D (11726825_at) / RFU C10orf10 (11716522_x_at) / Fold change /veh C10orf10 (11716522_x_at) / RFU KIR2DL2 /// KIR2DL4 /// KIR2DL5A /// KIR2DL5B /// KIR2DS1 /// KIR2DS2 /// KIR2DS3 /// KIR2DS4 /// KIR3DL3 /// KIR3DL3 /// KIR3DS1 (11738374_at) / Fold change /veh KIR2DL2 /// KIR2DL4 /// KIR2DL5A /// KIR2DL5B /// KIR2DS1 /// KIR2DS2 /// KIR2DS3 /// KIR2DS4 /// KIR3DL3 /// KIR3DL3 /// KIR3DS1 (11738374_at) / RFU C1QL1 (11718748_at) / Fold change /veh C1QL1 (11718748_at) / RFU TMPRSS4 (11747572_a_at) / Fold change /veh TMPRSS4 (11747572_a_at) / RFU HAMP (11756126_x_at) / Fold change /veh HAMP (11756126_x_at) / RFU RNFT2 (11725882_a_at) / Fold change /veh RNFT2 (11725882_a_at) / RFU NR4A2 (11747474_a_at) / Fold change /veh NR4A2 (11747474_a_at) / RFU ABCC12 (11746883_a_at) / Fold change /veh ABCC12 (11746883_a_at) / RFU TMEM136 (11760407_x_at) / Fold change /veh TMEM136 (11760407_x_at) / RFU CLDN22 /// WWC2 (11732394_at) / Fold change /veh CLDN22 /// WWC2 (11732394_at) / RFU HLA-DPB1 (11760878_x_at) / Fold change /veh HLA-DPB1 (11760878_x_at) / RFU SPINT1 (11716480_a_at) / Fold change /veh SPINT1 (11716480_a_at) / RFU GAP43 (11754022_s_at) / Fold change /veh GAP43 (11754022_s_at) / RFU A4GNT (11735810_at) / Fold change /veh A4GNT (11735810_at) / RFU PRB3 (11715151_x_at) / Fold change /veh PRB3 (11715151_x_at) / RFU TUBB4B (11761932_at) / Fold change /veh TUBB4B (11761932_at) / RFU CAPN14 (11732068_a_at) / Fold change /veh CAPN14 (11732068_a_at) / RFU TMCC2 (11721928_a_at) / Fold change /veh TMCC2 (11721928_a_at) / RFU IRGQ (11745062_a_at) / Fold change /veh IRGQ (11745062_a_at) / RFU FAM174B (11720279_a_at) / Fold change /veh FAM174B (11720279_a_at) / RFU TMPRSS4 (11748680_a_at) / Fold change /veh TMPRSS4 (11748680_a_at) / RFU FAM212B (11763350_a_at) / Fold change /veh FAM212B (11763350_a_at) / RFU PLEKHG5 (11743358_a_at) / Fold change /veh PLEKHG5 (11743358_a_at) / RFU ZSCAN30 (11745921_a_at) / Fold change /veh ZSCAN30 (11745921_a_at) / RFU CMKLR1 (11741424_a_at) / Fold change /veh CMKLR1 (11741424_a_at) / RFU LOC101060620 /// MAPK8IP1 (11723275_at) / Fold change /veh LOC101060620 /// MAPK8IP1 (11723275_at) / RFU SPTSSB (11747773_x_at) / Fold change /veh SPTSSB (11747773_x_at) / RFU PRSS12 (11739890_at) / Fold change /veh PRSS12 (11739890_at) / RFU BIN1 (11741810_x_at) / Fold change /veh BIN1 (11741810_x_at) / RFU WNT11 (11732464_a_at) / Fold change /veh WNT11 (11732464_a_at) / RFU C10orf10 (11716521_a_at) / Fold change /veh C10orf10 (11716521_a_at) / RFU C5orf56 (11738089_at) / Fold change /veh C5orf56 (11738089_at) / RFU CYB561 (11721691_x_at) / Fold change /veh CYB561 (11721691_x_at) / RFU ANKRD19P (11752326_a_at) / Fold change /veh ANKRD19P (11752326_a_at) / RFU OR2T12 /// OR2T33 /// OR2T8 (11738714_s_at) / Fold change /veh OR2T12 /// OR2T33 /// OR2T8 (11738714_s_at) / RFU VCAN (11748164_a_at) / Fold change /veh VCAN (11748164_a_at) / RFU JSRP1 (11732532_at) / Fold change /veh JSRP1 (11732532_at) / RFU KRTAP10-11 (11738290_x_at) / Fold change /veh KRTAP10-11 (11738290_x_at) / RFU MYO3A (11730013_a_at) / Fold change /veh MYO3A (11730013_a_at) / RFU EBF3 (11725865_a_at) / Fold change /veh EBF3 (11725865_a_at) / RFU CAMK2N1 (11719241_x_at) / Fold change /veh CAMK2N1 (11719241_x_at) / RFU C5orf56 (11738088_a_at) / Fold change /veh C5orf56 (11738088_a_at) / RFU OLFML3 (11715873_a_at) / Fold change /veh OLFML3 (11715873_a_at) / RFU LOC100653217 /// NTM (11731650_a_at) / Fold change /veh LOC100653217 /// NTM (11731650_a_at) / RFU MAPK11 (11762145_a_at) / Fold change /veh MAPK11 (11762145_a_at) / RFU FIZ1 (11724087_x_at) / Fold change /veh FIZ1 (11724087_x_at) / RFU OASL (11726364_x_at) / Fold change /veh OASL (11726364_x_at) / RFU SOX15 (11748057_x_at) / Fold change /veh SOX15 (11748057_x_at) / RFU CD79A (11719716_a_at) / Fold change /veh CD79A (11719716_a_at) / RFU HIST1H1D (11736915_at) / Fold change /veh HIST1H1D (11736915_at) / RFU CASKIN2 (11723855_a_at) / Fold change /veh CASKIN2 (11723855_a_at) / RFU LOC730098 (11760151_x_at) / Fold change /veh LOC730098 (11760151_x_at) / RFU OR4N2 (11742367_at) / Fold change /veh OR4N2 (11742367_at) / RFU PRRT2 (11749266_a_at) / Fold change /veh PRRT2 (11749266_a_at) / RFU SNX32 (11753110_a_at) / Fold change /veh SNX32 (11753110_a_at) / RFU CDHR5 (11726645_a_at) / Fold change /veh CDHR5 (11726645_a_at) / RFU RCAN1 (11760418_a_at) / Fold change /veh RCAN1 (11760418_a_at) / RFU FAM167A (11723789_a_at) / Fold change /veh FAM167A (11723789_a_at) / RFU FAM26E (11764081_at) / Fold change /veh FAM26E (11764081_at) / RFU ISYNA1 (11749810_s_at) / Fold change /veh ISYNA1 (11749810_s_at) / RFU ACY1 (11761880_at) / Fold change /veh ACY1 (11761880_at) / RFU 11764098_at / Fold change /veh 11764098_at / RFU SAMD14 (11745864_x_at) / Fold change /veh SAMD14 (11745864_x_at) / RFU NPB (11741838_a_at) / Fold change /veh NPB (11741838_a_at) / RFU TMPRSS6 (11731388_a_at) / Fold change /veh TMPRSS6 (11731388_a_at) / RFU KRTAP10-2 (11738614_at) / Fold change /veh KRTAP10-2 (11738614_at) / RFU ARHGAP8 /// PRR5-ARHGAP8 (11727945_x_at) / Fold change /veh ARHGAP8 /// PRR5-ARHGAP8 (11727945_x_at) / RFU KRTAP5-7 /// NADSYN1 (11734609_at) / Fold change /veh KRTAP5-7 /// NADSYN1 (11734609_at) / RFU RASL12 (11751679_a_at) / Fold change /veh RASL12 (11751679_a_at) / RFU CDKN2B (11736163_a_at) / Fold change /veh CDKN2B (11736163_a_at) / RFU PRF1 (11729649_at) / Fold change /veh PRF1 (11729649_at) / RFU, ZNF638 /// ZNF638-IT1 / Fold change vs veh, ZNF638 /// ZNF638-IT1 / RFU, PANK3 / Fold change vs veh, PANK3 / RFU, SH3YL1 / Fold change vs veh, SH3YL1 / RFU, ZEB2 / Fold change vs veh, ZEB2 / RFU, NRIP1 / Fold change vs veh, NRIP1 / RFU, PTTG1IP / Fold change vs veh, PTTG1IP / RFU, CAPN2 / Fold change vs veh, CAPN2 / RFU, MED14 / Fold change vs veh, MED14 / RFU, SNORA58 / Fold change vs veh, SNORA58 / RFU, C1orf63 / Fold change vs veh, C1orf63 / RFU, LRRFIP1 / Fold change vs veh, LRRFIP1 / RFU, NDUFAF7 / Fold change vs veh, NDUFAF7 / RFU, SLC12A2 / Fold change vs veh, SLC12A2 / RFU, IBTK / Fold change vs veh, IBTK / RFU, ESF1 / Fold change vs veh, ESF1 / Fold change vs veh, TMEM50B / RFU, TAOK1 / Fold change vs veh, TAOK1 / RFU, ACBD3 / Fold change vs veh, ACBD3 / RFU, TMA16 / Fold change vs veh, TMA16 / RFU, RWDD3 / Fold change vs veh, RWDD3 / RFU, BCAT1 / Fold change vs veh, BCAT1 / RFU, EDEM3 / Fold change vs veh, EDEM3 / RFU, TMEM33 / Fold change vs veh, TMEM33 / RFU, WDR75 / Fold change vs veh, WDR75 / RFU, AHCTF1 / Fold change vs veh, AHCTF1 / RFU, TFRC / Fold change vs veh, TFRC / RFU, ZDHHC17 / Fold change vs veh, ZDHHC17 / RFU, NOM1 / Fold change vs veh, NOM1 / RFU, ARL8B / Fold change vs veh, ARL8B / RFU, ZBTB11 / Fold change vs veh, ZBTB11 / RFU, TAMM41 / Fold change vs veh, TAMM41 / RFU, KIAA1704 /// LOC100996395 / Fold change vs veh, KIAA1704 /// LOC100996395 / RFU, ING1 / Fold change vs veh, ING1 / RFU, TRMT61B / Fold change vs veh, TRMT61B / RFU, FUBP3 / Fold change vs veh, FUBP3 / RFU, TP53 / Fold change vs veh, TP53 / RFU, TNKS2 / Fold change vs veh, TNKS2 / RFU, ZFP14 / Fold change vs veh, ZFP14 / RFU, ACTR2 / Fold change vs veh, ACTR2 / RFU, PPP3R1 / Fold change vs veh, PPP3R1 / RFU, PIK3R1 / Fold change vs veh, PIK3R1 / RFU, HNRNPA1 / Fold change vs veh, HNRNPA1 / RFU, RNF170 / Fold change vs veh, RNF170 / RFU, ZNF28 / Fold change vs veh, ZNF28 / RFU, RNGTT / Fold change vs veh, RNGTT / RFU, OGT / Fold change vs veh, OGT / RFU, BRD1 / Fold change vs veh, BRD1 / RFU, MARS / Fold change vs veh, MARS / RFU, ZNF655 / Fold change vs veh, ZNF655 / RFU, FAHD1 / Fold change vs veh, FAHD1 / RFU, BDP1 / Fold change vs veh, BDP1 / RFU, LRRCC1 / Fold change vs veh, LRRCC1 / RFU, ARID1A / Fold change vs veh, ARID1A / RFU, ZNF146 / Fold change vs veh, ZNF146 / RFU, ZNF330 / Fold change vs veh, ZNF330 / RFU, GPN3 / Fold change vs veh, GPN3 / RFU, C9orf123 / Fold change vs veh, C9orf123 / RFU, N4BP2L2 / Fold change vs veh, N4BP2L2 / RFU, ARFIP1 / Fold change vs veh, ARFIP1 / RFU, FAM179B / Fold change vs veh, FAM179B / RFU, BCL10 / Fold change vs veh, BCL10 / RFU, UHRF1BP1L / Fold change vs veh, UHRF1BP1L / RFU, BET1 / Fold change vs veh, BET1 / RFU, CNOT2 / Fold change vs veh, CNOT2 / RFU, ZNF268 / Fold change vs veh, ZNF268 / Fold change vs veh, ZNF507 / RFU, DGCR2 / Fold change vs veh, DGCR2 / RFU, WDSUB1 / Fold change vs veh, WDSUB1 / Fold change vs veh, HSP90B1 /// MIR3652 / RFU, ADSS / Fold change vs veh, ADSS / RFU, GK / Fold change vs veh, GK / RFU, ZNF148 / Fold change vs veh, ZNF148 / RFU, TAF9 / Fold change vs veh, TAF9 / RFU, SLC1A5 / Fold change vs veh, SLC1A5 / RFU, SLMO2 / Fold change vs veh, SLMO2 / RFU, ABCC4 / Fold change vs veh, ABCC4 / RFU, LOC101060439 /// RAP1B / Fold change vs veh, LOC101060439 /// RAP1B / RFU, RFX7 / Fold change vs veh, RFX7 / RFU, GTPBP10 / Fold change vs veh, GTPBP10 / RFU, CNEP1R1 / Fold change vs veh, CNEP1R1 / RFU, BIVM-ERCC5 /// ERCC5 / Fold change vs veh, BIVM-ERCC5 /// ERCC5 / RFU, ILF3 / Fold change vs veh, ILF3 / RFU 11762660_at / Fold change /veh 11762660_at / RFU VCAN (11757783_s_at) / Fold change /veh VCAN (11757783_s_at) / RFU DDX43 (11728927_at) / Fold change /veh DDX43 (11728927_at) / RFU KRT8 (11758188_x_at) / Fold change /veh KRT8 (11758188_x_at) / RFU NKD1 (11759106_at) / Fold change /veh NKD1 (11759106_at) / RFU SRD5A1 (11742802_a_at) / Fold change /veh SRD5A1 (11742802_a_at) / RFU TPSAB1 /// TPSB2 (11721975_s_at) / Fold change /veh TPSAB1 /// TPSB2 (11721975_s_at) / RFU GSTM3 (11746129_a_at) / Fold change /veh GSTM3 (11746129_a_at) / RFU IL23R (11737362_x_at) / Fold change /veh IL23R (11737362_x_at) / RFU TMEM51 (11727254_a_at) / Fold change /veh TMEM51 (11727254_a_at) / RFU PIWIL2 (11732686_x_at) / Fold change /veh PIWIL2 (11732686_x_at) / RFU ORM1 (11744905_x_at) / Fold change /veh ORM1 (11744905_x_at) / RFU CCDC152 (11743942_at) / Fold change /veh CCDC152 (11743942_at) / RFU ECM1 (11717891_a_at) / Fold change /veh ECM1 (11717891_a_at) / RFU IL23R (11748794_a_at) / Fold change /veh IL23R (11748794_a_at) / RFU TNFAIP8L3 (11732012_x_at) / Fold change /veh TNFAIP8L3 (11732012_x_at) / RFU MBOAT4 (11741988_at) / Fold change /veh MBOAT4 (11741988_at) / RFU 11764193_at / Fold change /veh 11764193_at / RFU TMEM53 (11763286_at) / Fold change /veh TMEM53 (11763286_at) / RFU MAGEB2 (11727129_at) / Fold change /veh MAGEB2 (11727129_at) / RFU TMEM200A (11744735_a_at) / Fold change /veh TMEM200A (11744735_a_at) / RFU CCDC152 (11751479_a_at) / Fold change /veh CCDC152 (11751479_a_at) / RFU FAM211A (11726209_a_at) / Fold change /veh FAM211A (11726209_a_at) / RFU RGS16 (11746705_a_at) / Fold change /veh RGS16 (11746705_a_at) / RFU VCAN (11755009_s_at) / Fold change /veh VCAN (11755009_s_at) / RFU RHOB (11743442_s_at) / Fold change /veh RHOB (11743442_s_at) / RFU RGS16 (11720943_a_at) / Fold change /veh RGS16 (11720943_a_at) / RFU RGS16 (11720944_at) / Fold change /veh RGS16 (11720944_at) / RFU, VPS4B / Fold change vs veh, VPS4B / RFU, CREB1 / Fold change vs veh, CREB1 / RFU, DNAJC13 / Fold change vs veh, DNAJC13 / RFU, GNAQ / Fold change vs veh, GNAQ / RFU, CDK5R1 / Fold change vs veh, CDK5R1 / RFU, ZRANB3 / Fold change vs veh, ZRANB3 / RFU, CUL4A / Fold change vs veh, CUL4A / RFU, CCNY / Fold change vs veh, CCNY / RFU, UFL1 / Fold change vs veh, UFL1 / RFU, COG3 / Fold change vs veh, COG3 / RFU, DIAPH2 / Fold change vs veh, DIAPH2 / RFU, SKA2 / Fold change vs veh, SKA2 / RFU, AFF3 / Fold change vs veh, AFF3 / RFU, LMF1 / Fold change vs veh, LMF1 / RFU, IPO11 / Fold change vs veh, IPO11 / RFU, DFFB / Fold change vs veh, DFFB / RFU, FOXP1 / Fold change vs veh, FOXP1 / RFU, CARD8 / Fold change vs veh, CARD8 / RFU, STRN3 / Fold change vs veh, STRN3 / RFU, ADK / Fold change vs veh, ADK / RFU, RASSF2 / Fold change vs veh, RASSF2 / RFU, WIPF1 / Fold change vs veh, WIPF1 / RFU, LARP1B / Fold change vs veh, LARP1B / RFU, RASA1 / Fold change vs veh, RASA1 / RFU, RB1 / Fold change vs veh, RB1 / RFU, PPFIA1 / Fold change vs veh, PPFIA1 / RFU, MAT2A / Fold change vs veh, MAT2A / RFU, CCT5 / Fold change vs veh, CCT5 / RFU, WDR92 / Fold change vs veh, WDR92 / RFU, CUX1 / Fold change vs veh, CUX1 / RFU, TTC7A / Fold change vs veh, TTC7A / RFU, TMEM135 / Fold change vs veh, TMEM135 / RFU, DEPTOR / Fold change vs veh, DEPTOR / RFU, CPM / Fold change vs veh, CPM / RFU, DNAJB6 / Fold change vs veh, DNAJB6 / RFU, CACNA2D3 / Fold change vs veh, CACNA2D3 / RFU, DTX4 / Fold change vs veh, DTX4 / RFU, TFCP2 / Fold change vs veh, TFCP2 / RFU, GMCL1 /// GMCL1P1 / Fold change vs veh, GMCL1 /// GMCL1P1 / RFU, AEBP2 / Fold change vs veh, AEBP2 / RFU, SNHG1 /// SNORD22 /// SNORD25 /// SNORD26 /// SNORD27 /// SNORD28 /// SNORD29 /// SNORD31 / Fold change vs veh, SNHG1 /// SNORD22 /// SNORD25 /// SNORD26 /// SNORD27 /// SNORD28 /// SNORD29 /// SNORD31 / Fold change (Aza/veh), C12orf56 (ProbeSet 11735607_a_at) / Fold change (ACY-1035/veh), C12orf56 (ProbeSet 11735607_a_at) / Fold change (Aza/veh), FGFR1OP (ProbeSet 11751329_s_at) / Fold change (ACY-1035/veh), FGFR1OP (ProbeSet 11751329_s_at) / Fold change (Aza/veh), VPS36 (ProbeSet 11739960_a_at) / Fold change (ACY-1035/veh), VPS36 (ProbeSet 11739960_a_at) / RFU SYPL1 (11715823_x_at) / Fold change /veh SYPL1 (11715823_x_at) / RFU IGFBP7 (11715501_s_at) / Fold change /veh IGFBP7 (11715501_s_at) / RFU REEP3 (11722064_at) / Fold change /veh REEP3 (11722064_at) / RFU IGLL1 (11728026_x_at) / Fold change /veh IGLL1 (11728026_x_at): dose or concentration left out as unconfirmed. The following applies: ProbeSet 11764057_s_at; LIST B.

For the molecule `Nc1ncn([C@@H]2O[C@H](CO)[C@@H](O)[C@H]2O)c(=O)n1` [azacitidine], the “RFU, C1orf63” value amounted to 124.54 RFU.
